Measurements: US20150336889A1, “INDOLE DERIVATIVES, PHARMACEUTICAL COMPOSITIONS CONTAINING SUCH INDOLES AND THEIR USE AS DNA METHYLATION MODULATORS” (IKERCHEM, S.L., priority 2012, published 2015)

What was measured:
SK-MEL-28 = experiment: Cancer cell growth inhibition, SK-MEL-28; type: cell-based; details: Homo sapiens; Melanoma, SK-MEL-28, cell viability, 72 h
Description: (§1) Cell culture-based assays were used to evaluate the ability of compounds of the invention to inhibit cancer cell growth inhibition.
(§2) Cells were obtained from the American Type Culture Collection (ATCC) and European Collection of Cell Cultures (ECACC).
(§3) Cells were thawed in their appropriate media plus supplements (see table below). Cells were passaged at confluence by washing once in HBSS cation-free followed by a 3 minutes incubation with trypsin ([0.5 μg/ml]/EDTA [0.2 μg/ml]) (Gibco-BRL, 15400054) solution in HBSS at 37° C. (except non-adherent cell lines), and transferred to their appropriate media plus supplements. Prior to seeding at defined cell concentration, cells were recovered in medium, centrifuged and taken up in medium, and counted.
(§4) Cells were plated at 3000/5000/10000 cells/well in 100 μl media in tissue culture 96 well plates (Cultek). After 24 h, media was supplemented by 100 μl/well of diluted IPDNs at 100 μM.
(§5) The Hexosaminidase assay was used for the adherent cell lines, whereas the AlamarBlue® assay was used for the non-adherent cell lines.
(§6) Dose-response curves were generated by serial dilutions (1:1) of the compounds. […] Reagent blanks, containing media plus colorimetric reagent without cells were run on each plate. Blank values were subtracted from test values and were routinely 5-10% of uninhibited control values. Plates were incubated 72 h, and living cell number was determined by AlamarBlue® and Hexosaminidase test. The advantages of using those assays are that both can be done in the same microwell plate. AlamarBlue® assay: plates were incubated 72 h and living cell number was determined by AlamarBlue (Biosource DAL1100). After 4 h incubation at 37° C., relative fluorescent intensity, which correlates with the number of living cells, was read in a Cytofluor plate reader (Millipore) at 535/590 nm (Excitation/emission). The hexosaminidase activity was measured according to the following protocol: the media was removed and cells were washed once with PBS. […]

RPMI-8226 = experiment: Cancer cell growth inhibition, RPMI-8226; type: cell-based; details: Homo sapiens; Multiple Myelome, RPMI-8226, cell viability, 72 h
Description: as §1, §2, §3, §4, §5
(§7) Dose-response curves were generated by serial dilutions (1:1) of the compounds. […] Reagent blanks, containing media plus colorimetric reagent without cells were run on each plate. Blank values were subtracted from test values and were routinely 5-10% of uninhibited control values. Plates were incubated 72 h, and living cell number was determined by AlamarBlue® and Hexosaminidase test. The advantages of using those assays are that both can be done in the same microwell plate. AlamarBlue® assay: plates were incubated 72 h and living cell number was determined by AlamarBlue (Biosource DAL1100). After 4 h incubation at 37° C., relative fluorescent intensity, which correlates with the number of living cells, was read in a Cytofluor plate reader (Millipore) at 535/590 nm (Excitation/emission). The hexosaminidase activity was measured according to the following protocol: the media was removed and cells were washed once with PBS.
(§8) Data analysis was done by calculating the percentage of cell viability normalized in front of negative control values, which were considered as a 100%. The curve was adjusted using a sigmoidal dose-response (variable slope) equation and EC50 values were obtained from the equation
(§9) where, X is the logarithm of concentration. Y is the response. Bottom is the Y value at the bottom plateau Top is the Y value at the top plateau LogEC50 is the X value when the response is halfway between Bottom and Top. With different kinds of variables, this variable is sometimes called ED50 (effective dose, 50%), or IC50 (inhibitory concentration, 50%, used when the curve goes downhill).

143B = experiment: Cancer cell growth inhibition, 143B; type: cell-based; details: Homo sapiens, Osteosarcoma, cell viability, 72 h
Description: as §1, §2, §3, §4, §5, §7, §8, §9

U-87MG = experiment: Cancer cell growth inhibition, U-87MG; type: cell-based; details: Homo sapiens, Brain, cell viability, 72 h
Description: as §1, §2, §3, §4, §5, §7, §8, §9

NCI-H1650 = experiment: Cancer cell growth inhibition, NCI-H1650; type: cell-based; details: Homo sapiens; Lung, NCI-H1650, cell viability, 72 h
Description: as §1, §2, §3, §4, §5, §6

NCI-H358 = experiment: Cancer cell growth inhibition, NCI-H358; type: cell-based; details: Homo sapiens; Lung, NCI-H358, cell viability, 72 h
Description: as §1, §2, §3, §4, §5, §7, §8, §9

Jurkat = experiment: Cancer cell growth inhibition, Jurkat; type: cell-based; details: Homo sapiens, Hematologic, cell viability, 72 h
Description: as §1, §2, §3, §4, §5, §7, §8, §9

U-373MG = experiment: Cancer cell growth inhibition, U-373MG; type: cell-based; details: Homo sapiens, U373 MG, Brain, cell viability, 72 h
Description: as §1, §2, §3, §4, §5, §6

HCT-116 = experiment: Cancer cell growth inhibition, HCT-116; type: cell-based; details: Homo sapiens; Colorectal, HCT-116, cell viability, 72 h
Description: as §1, §2, §3, §4, §5, §7, §8, §9

Panc-1 = experiment: Cancer cell growth inhibition, Panc-1; type: cell-based; details: Homo sapiens; Pancreatic, Panc-1, cell viability, 72 h
Description: as §1, §2, §3, §4, §5, §7, §8, §9

LoVo = experiment: Cancer cell growth inhibition, LoVo; type: cell-based; details: Homo sapiens, Colorectal, cell viability, 72 h
Description: as §1, §2, §3, §4, §5, §6

MDA-MB-435 = experiment: Cancer cell growth inhibition, MDA-MB-435; type: cell-based; details: Homo sapiens; Melanoma, MDA-MB-435, cell viability, 72 h
Description: as §1, §2, §3, §4, §5, §7, §8, §9

MCF-7 = experiment: Cancer cell growth inhibition, MCF-7; type: cell-based; details: Homo sapiens, MCF7; Breast, MCF-7, cell viability, 72 h
Description: as §1, §2, §3, §4, §5, §7, §8, §9

A-549 = experiment: Cancer cell growth inhibition, A-549; type: cell-based; details: Homo sapiens, A549; Lung, A-549, cell viability, 72 h
Description: as §1, §2, §3, §4, §5, §7, §8, §9

LnCaP = experiment: Cancer cell growth inhibition, LnCaP; type: cell-based; details: Homo sapiens, Prostate, cell viability, 72 h
Description: as §1, §2, §3, §4, §5, §7, §8, §9

T47D = experiment: Cancer cell growth inhibition, T47D; type: cell-based; details: Homo sapiens, Breast, cell viability, 72 h
Description: as §1, §2, §3, §4, §5, §7, §8, §9

CCFR-CEM = experiment: Cancer cell growth inhibition, CCFR-CEM; type: cell-based; details: Hematologic, cell viability, 72 h
Description: as §1, §2, §3, §4, §5, §7, §8, §9

SW-480 = experiment: Cancer cell growth inhibition, SW-480; type: cell-based; details: Homo sapiens, SW480; Colorectal, SW-480, cell viability, 72 h
Description: as §1, §2
(§10) Cells were thawed in their appropriate media plus supplements (see table below). Cells were passaged at confluence by washing once in HBSS cation-free followed by a 3 minutes incubation with trypsin ([0.5 μg/ml]/EDTA [0.2 μg/ml]) (Gibco-BRL, 15400054) solution in HBSS at 37° C. (except non-adherent cell lines), and transferred to their appropriate media plus supplements. Prior to seeding at defined cell concentration, cells were recovered in medium, centrifuged and taken up in medium, and counted. […]
(§11) Dose-response curves were generated by serial dilutions (1:1) of the compounds. […] Plates were incubated 72 h, and living cell number was determined by AlamarBlue® and Hexosaminidase test. […] AlamarBlue® assay: plates were incubated 72 h and living cell number was determined by AlamarBlue (Biosource DAL1100). After 4 h incubation at 37° C., relative fluorescent intensity, which correlates with the number of living cells, was read in a Cytofluor plate reader (Millipore) at 535/590 nm (Excitation/emission). The hexosaminidase activity was measured according to the following protocol: the media was removed and cells were washed once with PBS. […]

DU-145 = experiment: Cancer cell growth inhibition, DU-145; type: cell-based; details: Homo sapiens; Prostate, DU-145, cell viability, 72 h
Description: as §1, §2, §3, §4, §5, §6

Human DNMT1 = biological target: T1, Human DNMT1 (Homo sapiens, UniProt P26358); experiment: DNMT1 enzymatic activity inhibition, radioisotope-based 3H-SAM filter binding assay; type: biochemical; details: 1 μM SAM, 25 nM DNMT1, 0.005 mg/ml Poly(dI-dC), 30° C. 1 hour, 10-dose
T1 construct: a-a 2-1632, with N-terminal GST tag; GST (N)
Description: The inhibition of the enzymatic activity of DNMT1 was tested using low volume radioisotope-based assay which uses tritium-labeled AdoMet (^3H-SAM) as a methyl donor. Inhibitors diluted in DMSO were added by using acoustic technology (Echo550, Labcyte Inc. Sunnyvale, Calif.) into enzyme/substrate mixture in nano-liter range. The reaction was initiated by the addition of ^3H-SAM, and incubated at 30° C. for 1 hour. Total final methylations on the substrate poly(dI-dC) were detected by a filter binding approach. Data analysis was performed using GraphPad Prism software (La Jolla, Calif.) for IC50 curve fits.

RAMOS = experiment: Cancer cell growth inhibition, RAMOS; type: cell-based; details: Homo sapiens, Hematologic, cell viability, 72 h
Description: as §1, §2, §3, §4, §5, §7, §8, §9

PC3 = experiment: Cancer cell growth inhibition, PC3; type: cell-based; details: Homo sapiens, PC-3; Prostate, PC3, cell viability, 72 h
Description: as §1, §2, §3, §4, §5, §7, §8, §9

K562 = experiment: Cancer cell growth inhibition, K562; type: cell-based; details: Homo sapiens; Hematologic, K562, cell viability, 72 h
Description: as §1, §2, §3, §4, §5, §6

NCI-H1975 = experiment: Cancer cell growth inhibition, NCI-H1975; type: cell-based; details: Homo sapiens; Lung, NCI-H1975, cell viability, 72 h
Description: as §1, §2, §3, §4, §5, §7, §8, §9

Colo205 = experiment: Cancer cell growth inhibition, Colo205; type: cell-based; details: Homo sapiens, COLO 205; Colorectal, Colo205, cell viability, 72 h
Description: as §1, §2, §3, §4, §5, §6

HT-1080 = experiment: Cancer cell growth inhibition, HT-1080; type: cell-based; details: Homo sapiens; HT-1080, cell viability, 72 h
Description: as §1, §2, §3, §4, §5, §7, §8, §9

LS174T = experiment: Cancer cell growth inhibition, LS174T; type: cell-based; details: Homo sapiens, Colorectal, cell viability, 72 h
Description: as §1, §2, §10, §11

SK-OV-3 = experiment: Cancer cell growth inhibition, SK-OV-3; type: cell-based; details: Homo sapiens; Ovarian, SK-OV-3, cell viability, 72 h
Description: as §1, §2, §3, §4, §5, §6

MiaPaCa-2 = experiment: Cancer cell growth inhibition, MiaPaCa-2; type: cell-based; details: Homo sapiens, MIA PaCa-2; Pancreatic, MiaPaCa-2, cell viability, 72 h
Description: as §1, §2, §3, §4, §5, §7, §8, §9

Daoy = experiment: Cancer cell growth inhibition, Daoy; type: cell-based; details: Homo sapiens, Brain, cell viability, 72 h
Description: as §1, §2, §3, §4, §5, §7, §8, §9

T1 sequence (P26358 2-1632 isoform P26358-2): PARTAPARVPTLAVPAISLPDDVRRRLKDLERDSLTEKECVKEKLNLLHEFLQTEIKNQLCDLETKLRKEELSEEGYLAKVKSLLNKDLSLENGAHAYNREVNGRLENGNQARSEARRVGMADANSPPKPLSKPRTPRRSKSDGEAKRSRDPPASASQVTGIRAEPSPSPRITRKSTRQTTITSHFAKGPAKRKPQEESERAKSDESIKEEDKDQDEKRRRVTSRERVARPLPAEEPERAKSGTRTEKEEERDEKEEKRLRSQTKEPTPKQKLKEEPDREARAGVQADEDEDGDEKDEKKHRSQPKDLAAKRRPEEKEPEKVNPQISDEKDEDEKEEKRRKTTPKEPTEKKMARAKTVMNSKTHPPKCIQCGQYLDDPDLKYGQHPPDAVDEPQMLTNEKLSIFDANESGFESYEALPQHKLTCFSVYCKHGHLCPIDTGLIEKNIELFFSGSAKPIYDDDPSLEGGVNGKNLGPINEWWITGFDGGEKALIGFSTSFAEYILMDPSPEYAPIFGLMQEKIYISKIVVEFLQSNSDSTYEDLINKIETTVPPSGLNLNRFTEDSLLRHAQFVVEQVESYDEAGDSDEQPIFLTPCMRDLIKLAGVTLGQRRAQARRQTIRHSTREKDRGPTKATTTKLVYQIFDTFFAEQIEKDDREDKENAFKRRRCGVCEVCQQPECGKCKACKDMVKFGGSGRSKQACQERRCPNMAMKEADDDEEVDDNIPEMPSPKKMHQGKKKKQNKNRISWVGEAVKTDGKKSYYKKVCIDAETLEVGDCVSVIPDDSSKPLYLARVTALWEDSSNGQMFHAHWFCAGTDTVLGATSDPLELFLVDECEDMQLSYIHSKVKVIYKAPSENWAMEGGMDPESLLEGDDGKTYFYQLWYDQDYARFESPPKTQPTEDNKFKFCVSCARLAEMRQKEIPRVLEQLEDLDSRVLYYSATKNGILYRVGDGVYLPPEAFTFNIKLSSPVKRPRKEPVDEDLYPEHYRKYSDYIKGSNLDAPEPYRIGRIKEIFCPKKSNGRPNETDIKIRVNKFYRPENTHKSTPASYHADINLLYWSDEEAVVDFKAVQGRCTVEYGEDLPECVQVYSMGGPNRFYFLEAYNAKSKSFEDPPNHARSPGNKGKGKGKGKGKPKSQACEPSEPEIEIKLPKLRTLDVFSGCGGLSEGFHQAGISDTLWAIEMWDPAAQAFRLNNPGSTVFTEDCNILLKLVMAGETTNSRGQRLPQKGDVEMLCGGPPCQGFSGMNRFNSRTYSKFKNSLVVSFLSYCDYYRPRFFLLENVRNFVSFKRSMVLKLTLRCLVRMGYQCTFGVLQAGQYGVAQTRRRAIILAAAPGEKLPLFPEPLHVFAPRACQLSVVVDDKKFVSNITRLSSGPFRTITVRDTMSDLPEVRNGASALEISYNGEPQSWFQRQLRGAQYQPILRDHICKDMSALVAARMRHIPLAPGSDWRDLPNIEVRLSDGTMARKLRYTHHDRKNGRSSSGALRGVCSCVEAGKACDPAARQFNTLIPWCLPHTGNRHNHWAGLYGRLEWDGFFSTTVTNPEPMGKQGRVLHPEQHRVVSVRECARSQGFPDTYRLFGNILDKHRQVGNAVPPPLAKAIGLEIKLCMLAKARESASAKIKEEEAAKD

Compound: COc1cc(OC)c2c(-c3ccc(O)c(O)c3O)cn(CC(=O)c3ccc(O)c(O)c3O)c2c1 [Example 11, 2-[4,6-dimethoxy-3-(2,3,4-trihydroxyphenyl)-1H-indol-1-yl]-1-(2,3,4-trihydroxyphenyl)ethanone]
- EC50 (SK-MEL-28): 33 µM
- EC50 (RPMI-8226): 60 µM
- EC50 (143B): 99 µM
- EC50 (U-87MG): 50 µM
- EC50 (NCI-H1650): 57 µM
- EC50 (NCI-H358): 51 µM
- EC50 (Jurkat): 8.9 µM
- EC50 (U-373MG): 58 µM
- EC50 (HCT-116): 22 µM
- EC50 (Panc-1): 23 µM
- EC50 (LoVo): 50 µM
- EC50 (MDA-MB-435): 11 µM
- EC50 (MCF-7): 12 µM
- EC50 (A-549): 35 µM
- EC50 (LnCaP): 30 µM
- EC50 (T47D): 30 µM
- EC50 (CCFR-CEM): 7.6 µM
- EC50 (SW-480): 24 µM
- EC50 (DU-145): 47 µM
- IC50 (Human DNMT1): 39.4 µM
- EC50 (RAMOS): 12 µM
- EC50 (PC3): 26 µM
- EC50 (K562): 69 µM
- EC50 (NCI-H1975): 30 µM
- EC50 (Colo205): 24 µM
- EC50 (HT-1080): 20 µM
- EC50 (LS174T): 62 µM
- EC50 (SK-OV-3): 73 µM
- EC50 (MiaPaCa-2): 65 µM
- EC50 (Daoy): 6.6 µM
